Values joined by “and” are separate entries in the source; they are usually repeats but may differ in a detail not shown here. Equal entries are not always repeated. Results filed as inconclusive are left out.
Tested on: MX-1 breast xenograft, nude mice, tumor weight T/C
Assay: NCI In Vivo Anticancer Drug Screen. Data for tumor model Human Mammary Carcinoma MX-1 Xenograft (intrarenal inoculation) in NU/NU Swiss (nude) mice
Conditions: endpoint: mean tumor weight change, higher = larger tumour
In short: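 Compound dosed to mice with transplantable tumor; vehicle group as control. Endpoint survival or tumour size, reported as T/C.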

[1] = dose: 300.0 mg/kg/injection, schedule: Q04DX003 (sc), vehicle: saline with Tween-80
[2] = dose: 600.0 mg/kg/injection, schedule: Q04DX003 (sc), vehicle: saline with Tween-80
[3] = dose: 25.0 mg/kg/injection, schedule: Q01DX010 (sc), vehicle: saline
[4] = dose: 50.0 mg/kg/injection, schedule: Q01DX010 (sc), vehicle: Klucel (hydroxypropylcellulose) (HPC)
[5] = dose: 75.0 mg/kg/injection, schedule: Q04DX003 (sc), vehicle: saline with Tween-80
[6] = dose: 150.0 mg/kg/injection, schedule: Q04DX003 (sc), vehicle: saline with Tween-80
[7] = dose: 3.13 mg/kg/injection, schedule: Q01DX010 (sc), vehicle: saline
[8] = dose: 6.25 mg/kg/injection, schedule: Q01DX010 (sc), vehicle: saline

N#Cc1ccc(NN=O)nc1
T/C (dose: 12.5 mg/kg/injection, schedule: Q04DX003 (ip), vehicle: water): 110 % of control
T/C (dose: 25.0 mg/kg/injection, schedule: Q04DX003 (ip), vehicle: water): 18 % of control
T/C (dose: 50.0 mg/kg/injection, schedule: Q04DX003 (ip), vehicle: water): 18 % of control
T/C (dose: 100.0 mg/kg/injection, schedule: Q04DX003 (ip), vehicle: water): 20 % of control

COC(=O)C(Cl)(Cl)N=Nc1c(Cl)cc(Cl)c(C)c1Cl
T/C [1]: 78 % of control
T/C [2]: 74 % of control

c1ccc(CN2CCOC2)cc1
T/C [3]: 60 % of control
T/C (dose: 50.0 mg/kg/injection, schedule: Q01DX010 (sc), vehicle: saline): 78 % of control
T/C (dose: 100.0 mg/kg/injection, schedule: Q01DX010 (sc), vehicle: saline): 70 % of control
T/C (dose: 200.0 mg/kg/injection, schedule: Q01DX010 (sc), vehicle: saline): 47 % of control

COc1cc2cc(c1Cl)N(C)C(=O)CC(OC(=O)CC(C)C)C1(C)OC1C(C)C1CC(O)(NC(=O)O1)C(OC)/C=C/C=C(C)C2 (stereo not given)
T/C (dose: 25.0 micrograms/kg/injection, schedule: Q01DX010 (sc), vehicle: saline + alcohol): -12 % of control
T/C (dose: 100.0 micrograms/kg/injection, schedule: Q01DX010 (sc), vehicle: saline + alcohol): -54 % of control

Nc1ncnc2c1nnn2C1OC(CO)C(O)C1O (stereo not given)
T/C (dose: 18.75 mg/kg/injection, schedule: Q04DX003 (sc), vehicle: Klucel (hydroxypropylcellulose) (HPC)): 76 % of control and 80 % of control

Cc1ccc2c(ccc(CC(=S)[S-])[n+]2C)c1
T/C [4]: 57 % of control
T/C (dose: 100.0 mg/kg/injection, schedule: Q01DX010 (sc), vehicle: Klucel (hydroxypropylcellulose) (HPC)): 80 % of control
T/C (dose: 200.0 mg/kg/injection, schedule: Q01DX010 (sc), vehicle: Klucel (hydroxypropylcellulose) (HPC)): 28 % of control
T/C (dose: 400.0 mg/kg/injection, schedule: Q01DX010 (sc), vehicle: Klucel (hydroxypropylcellulose) (HPC)): 107 % of control

CCC[P+](c1ccccc1)(c1ccccc1)c1ccccc1
T/C (dose: 18.75 mg/kg/injection, schedule: Q04DX003 (sc), vehicle: saline with Tween-80): 100 % of control
T/C (dose: 37.5 mg/kg/injection, schedule: Q04DX003 (sc), vehicle: saline with Tween-80): 73 % of control
T/C [5]: 62 % of control
T/C [6]: 54 % of control

COc1cc(C(C)(C)C)cc(OC)c1C(O)(c1c(OC)cc(C(C)(C)C)cc1OC)c1c(OC)cc(C(C)(C)C)cc1OC
T/C [2]: 212 % of control
T/C (dose: 1200.0 mg/kg/injection, schedule: Q04DX003 (sc), vehicle: saline with Tween-80): 154 % of control
T/C (dose: 2400.0 mg/kg/injection, schedule: Q04DX003 (sc), vehicle: saline with Tween-80): 207 % of control

COc1ccc(C(N)=O)cc1N=NN(C)C
T/C [4]: 169 % of control

Cc1c2cc[n+](C)cc2c(C)c2c1[nH]c1ccc(O)cc12
T/C (dose: 1.5 mg/kg/injection, schedule: Q04DX003 (sc), vehicle: water): 167 % of control
T/C (dose: 6.0 mg/kg/injection, schedule: Q04DX003 (sc), vehicle: water): 91 % of control

C/C=C/C=C/c1cc2cc3c(c(O)c2c(=O)[nH]1)C1(CC3)C(O)=c2c(=O)c3c(=O)cc(OC)c(=O)c=3c(=O)c2=C1O (stereo not given)
T/C (dose: 8.0 mg/kg/injection, schedule: Q01DX010 (sc), vehicle: DMSO): 122 % of control
T/C (dose: 16.0 mg/kg/injection, schedule: Q01DX010 (sc), vehicle: DMSO): 91 % of control

C(COCCOCC1CO1)OCCOCC1CO1 (stereo not given)
T/C (dose: 300.0 mg/kg/injection, schedule: Q04DX003 (sc), vehicle: saline): 64 % of control
T/C (dose: 600.0 mg/kg/injection, schedule: Q04DX003 (sc), vehicle: saline): 29 % of control

CCCCNC(C)C1(O)Cc2c(O)c3c(c(O)c2C(OC2CC(N)C(O)C(C)O2)C1)C(=O)c1c(OC)cccc1C3=O (stereo not given)
T/C (dose: 100.0 mg/kg/injection, schedule: Q01DX010 (sc), vehicle: water): 115 % of control
T/C (dose: 200.0 mg/kg/injection, schedule: Q01DX010 (sc), vehicle: water): 75 % of control

N=[N+]=CC(=O)OCC(N)C(=O)O (stereo not given)
T/C [7]: -57 % of control and -53 % of control
T/C [8]: -69 % of control and -54 % of control
T/C (dose: 12.5 mg/kg/injection, schedule: Q01DX010 (sc), vehicle: saline): -81 % of control and -71 % of control
T/C [3]: -80 % of control

COC1CC(CC2CCC(C)C(C(C)C(=O)O)O2)OC2(OC(C)(C3CCC(C)(C4OC(C5OC(O)(CO)C(C)CC5C)CC4C)O3)CC2C)C1C (stereo not given)
T/C (dose: 3.75 mg/kg/injection, schedule: Q04DX003 (sc), vehicle: Klucel (hydroxypropylcellulose) (HPC)): 120 % of control
T/C (dose: 7.5 mg/kg/injection, schedule: Q04DX003 (sc), vehicle: Klucel (hydroxypropylcellulose) (HPC)): 65 % of control
T/C (dose: 15.0 mg/kg/injection, schedule: Q04DX003 (sc), vehicle: Klucel (hydroxypropylcellulose) (HPC)): 86 % of control

O=NN(CCCl)C(=O)NC1CCCCC1
T/C (dose: 4.0 mg/kg/injection, schedule: Q01DX010 (sc), vehicle: saline with Tween-80): 109 % of control
T/C (dose: 8.0 mg/kg/injection, schedule: Q04DX003 (sc), vehicle: Klucel (hydroxypropylcellulose) (HPC)): 88 % of control and 92 % of control
T/C (dose: 8.0 mg/kg/injection, schedule: Q04DX003 (sc), vehicle: carboxymethylcellulose (CMC)): 89 % of control
T/C (dose: 12.5 mg/kg/injection, schedule: Q04DX003 (sc), vehicle: Klucel (hydroxypropylcellulose) (HPC)): 59 % of control
T/C (dose: 16.0 mg/kg/injection, schedule: Q01DX010 (sc), vehicle: saline with Tween-80): 28 % of control
T/C (dose: 16.0 mg/kg/injection, schedule: Q04DX003 (sc), vehicle: carboxymethylcellulose (CMC)): 85 % of control
T/C (dose: 25.0 mg/kg/injection, schedule: Q04DX003 (sc), vehicle: Klucel (hydroxypropylcellulose) (HPC)): 92 % of control and 213 % of control
T/C (dose: 32.0 mg/kg/injection, schedule: Q04DX003 (sc), vehicle: carboxymethylcellulose (CMC)): 77 % of control
T/C (dose: 64.0 mg/kg/injection, schedule: Q04DX003 (sc), vehicle: Klucel (hydroxypropylcellulose) (HPC)): -95 % of control
T/C (dose: 64.0 mg/kg/injection, schedule: Q04DX003 (sc), vehicle: carboxymethylcellulose (CMC)): 29 % of control

c1ccc2c(NCCCCCCNc3c4ccccc4nc4ccccc34)c3ccccc3nc2c1
T/C (dose: 10.0 mg/kg/injection, schedule: Q01DX010 (sc), vehicle: Klucel (hydroxypropylcellulose) (HPC)): 87 % of control
T/C (dose: 10.0 mg/kg/injection, schedule: Q04DX003 (sc), vehicle: Klucel (hydroxypropylcellulose) (HPC)): 297 % of control
T/C (dose: 20.0 mg/kg/injection, schedule: Q01DX010 (sc), vehicle: Klucel (hydroxypropylcellulose) (HPC)): 58 % of control
T/C (dose: 20.0 mg/kg/injection, schedule: Q04DX003 (sc), vehicle: Klucel (hydroxypropylcellulose) (HPC)): 241 % of control
T/C (dose: 40.0 mg/kg/injection, schedule: Q04DX003 (sc), vehicle: Klucel (hydroxypropylcellulose) (HPC)): 322 % of control
T/C (dose: 80.0 mg/kg/injection, schedule: Q04DX003 (sc), vehicle: Klucel (hydroxypropylcellulose) (HPC)): 199 % of control

O=C1OC(=O)[C@H]2[C@@H]1[C@H]1C=C[C@@H]2OC1=O
T/C (dose: 25.0 mg/kg/injection, schedule: Q04DX003 (sc), vehicle: suspension in saline): 83 % of control
T/C (dose: 50.0 mg/kg/injection, schedule: Q04DX003 (sc), vehicle: suspension in saline): 101 % of control
T/C (dose: 100.0 mg/kg/injection, schedule: Q04DX003 (sc), vehicle: suspension in saline): 89 % of control
T/C (dose: 150.0 mg/kg/injection, schedule: Q04DX003 (sc), vehicle: suspension in saline): 91 % of control
T/C (dose: 200.0 mg/kg/injection, schedule: Q04DX003 (sc), vehicle: suspension in saline): 90 % of control
T/C (dose: 300.0 mg/kg/injection, schedule: Q04DX003 (sc), vehicle: suspension in saline): 109 % of control
T/C (dose: 600.0 mg/kg/injection, schedule: Q04DX003 (sc), vehicle: suspension in saline): 89 % of control

CCc1ccc(C2=C(O)C(=O)C(c3ccccc3)=C(O)C2=O)cc1
T/C (dose: 150.0 mg/kg/injection, schedule: Q04DX003 (sc), vehicle: Klucel (hydroxypropylcellulose) (HPC)): 100 % of control
T/C (dose: 300.0 mg/kg/injection, schedule: Q04DX003 (sc), vehicle: Klucel (hydroxypropylcellulose) (HPC)): 100 % of control
T/C (dose: 600.0 mg/kg/injection, schedule: Q04DX003 (sc), vehicle: Klucel (hydroxypropylcellulose) (HPC)): 77 % of control

CCN1C=C/C(=C\C=C/c2cc[n+](CC)c3ccccc23)c2ccccc21
T/C (dose: 0.25 mg/kg/injection, schedule: Q01DX010 (sc), vehicle: saline): 111 % of control
T/C (dose: 0.5 mg/kg/injection, schedule: Q01DX010 (sc), vehicle: saline): 173 % of control
T/C (dose: 1.0 mg/kg/injection, schedule: Q01DX010 (sc), vehicle: saline): 82 % of control

O=S(=O)(N=N/C=C1\C=CC=CN1O)c1cccs1
T/C [5]: 99 % of control
T/C [6]: 77 % of control
T/C [1]: 72 % of control

Nc1nncs1
T/C [7]: 92 % of control
T/C [8]: 99 % of control
T/C [3]: 86 % of control
